Experimental findings from patent US20180016554A1, “HUMAN SERUM ALBUMIN-CONTAINING CULTURE MEDIUM FOR GROWTH OF NEURAL STEM CELLS” (AJINOMOTO CO., INC., priority 2015, published 2018) are described below.

In this experiment the test system is neurosphere (neural stem cells and/or neural progenitor cells induced from human pluripotent stem cells). The experiment can be described thus: Functional evaluation of fatty acid (oleic acid) added to human serum albumin-added medium: neurosphere morphology. Conditions: 14 days' culturing. The experiment is classed as cell-based. As to the method: Similar to Example 1, 2.1 mg/mL human serum albumin-added medium was produced. A medium was produced by adding oleic acid (Tokyo Chemical Industry Co., Ltd.) at a final concentration of 20 μM or 60 μM to this medium, and a medium without addition of oleic acid was produced, and neurospheres were cultured in these media. […] The medium was exchanged every 7 days and, after 14 days' culturing, the morphology of the neurosphere formed was observed under a microscope.

Entries after “also recorded” stand apart in the source; their conditions may differ.

With `CCCCCCCC/C=C\CCCCCCCC(=O)O` [oleic acid], the “morphology of the neurosphere formed” value was “showed a good neurosphere form” (20 μM oleic acid in 2.1 mg/mL human serum albumin-added medium) and “show a black sphere with an irregular shape; also recorded: Many black sphere images with an irregular shape were confirmed” (60 μM oleic acid in 2.1 mg/mL human serum albumin-added medium).
